According to patent publication US12297295B2, “Peptide for treating cancer” (Saint Leo University, priority 2019, dated 2025):
pIC50: −log10 of the molar value. Where no end group is shown, it is not given here.

Assays:
CMG helicase = biological target: T1, CMG helicase (Xenopus laevis, UniProt Q91876); assay: S phase arrested Xenopus egg extracts, chromatin RPA Western blot as readout for DNA helicase activity; type: biochemical; settings: 250 μM peptide, 90 min incubation
T1 construct: from tissue; host or cells: S phase arrested Xenopus egg extracts (endogenous proteins on chromatin)
Procedure: The peptide of SEQ ID NO: 1 was synthesized using solid-phase synthesis. The product was purified using HPLC to a purity of about 99%. 250 μM of peptide Ex7 ([…]) (SEQ ID NO: 8), peptide 7N (circularized—KGEVLQMEDDLV) (SEQ ID NO: 9), peptide 7M (ISFQLMLCVLDYF) (SEQ ID NO: 1), or peptide 7C (IKLSPPMLLKEPYK) (SEQ ID NO: 10) were incubated in S phase arrested Xenopus egg extracts. Following a 90 min incubation, chromatin was isolated and probed by Western blotting for RPA protein as a readout for DNA helicase activity. Additionally, peptide 7MN (ISFQLML) (SEQ ID NO: 5), peptide 7MM (QLMLCVL) (SEQ ID NO: 2), and peptide 7MC (LCVLDYF) (SEQ ID NO: 6) were tested.
250 μM of each of peptides 7α (DLVISFQLMLCVLDYFIK) (SEQ ID NO: 14), 7α-ln (LVISFQLMLCVLDYFIK) (SEQ ID NO: 22), 7α-2n (VISFQLMLCVLDYFIK) (SEQ ID NO: 23), 7α-3n (ISFQLMLCVLDYFIK) (SEQ ID NO: 24), 7α-4n (SFQLMLCVLDYFIK) (SEQ ID NO: 25), 7α-5n (FQLMLCVLDYFIK) (SEQ ID NO: 26), 7α-6n (QLMLCVLDYFIK) (SEQ ID NO: 27), 7α-7n (LMLCVLDYFIK) (SEQ ID NO: 28), 7α-17c (DLVISFQLMLCVLDYF) (SEQ ID NO: 29), 7α-16c (DLVISFQLMLCVLDY) (SEQ ID NO: 30), 7α-15c (DVISFQLMLCVLD) (SEQ ID NO: 31), 7α-14c (DVISFQLMLCVL) (SEQ ID NO: 32), 7α-11c (DVISFQLML) (SEQ ID NO: 33) was incubated in S phase arrested Xenopus egg extracts. Following a 90 min incubation, chromatin was isolated and probed by Western blotting for RPA protein as a readout for DNA helicase activity.

[1] = system: BT-549 breast cancer cells
Procedure: The effect of Peptides 7M and 7MM on BT-549 breast cancer cells (ATCC #HTB-122) was studied. Pierce Protein Transfection reagent (Thermo Scientific, 89850) was used to deliver peptide to the cultured cells. BT-549 breast cancer cells were transfected with 0.625-20 μM Peptide 7M or 1.25-10 μM Peptide 7MM for 3.5 hrs, incubated in a complete media for a duration of two doubling times (96 hours), and assessed for viability by using a CCK-8 colorimetric assay.
(§1) IC50 values were calculated from obtained equations that describe cell viability as a function of peptide concentration.

[2] = system: HMEC primary mammary epithelial normal cells
Procedure: HMEC mammary epithelial cells (ATCC #PCS-600-010) were transfected with 1.25-20 μM peptide 7α for 3.5 hrs, incubated in a complete media for a duration of two doubling times, and assessed for viability by using a CCK-8 colorimetric assay (Dojindo Molecular Technologies, Inc.).
HMEC primary normal epithelial breast cells (ATCC #PCS-600-010) were transfected with 1.25-10 μM peptide 7MM for 3.5 hrs, incubated in a complete media for a duration of two doubling times, and assessed for viability by using a CCK-8 colorimetric assay (Dojindo Molecular Technologies, Inc.).
as §1

[3] = system: M059J glioma cancer cells
Procedure: (§2) Pierce Protein Transfection reagent (Thermo Scientific, 89850) was used to deliver peptide to the cultured cells.
M059J glioma cancer cells (ATCC #CRL-2366) were transfected with 1.25-10 μM peptide 7α for 3.5 hrs, incubated in a complete media for a duration of two doubling times, and assessed for viability by using a CCK-8 colorimetric assay (Dojindo Molecular Technologies, Inc.).
M059J glioma cancer cells (ATCC #CRL-2366) were transfected with 1.25-10 μM peptide 7MM for 3.5 hrs, incubated in a complete media for a duration of two doubling times, and assessed for viability by using a CCK-8 colorimetric assay (Dojindo Molecular Technologies, Inc.).
as §1

[4] = system: SVG p12 immortalized astroglia cells
Procedure: as §1

[5] = system: THLE-3 immortalized normal liver cells
Procedure: as §1

[6] = system: HLF normal primary lung fibroblasts
Procedure: The effect of peptide 7α of viability of HLF normal primary lung fibroblasts was studied. HLF normal primary lung fibroblasts (ATCC #PCS-201-013) were transfected with 1.25-10 μM peptide 7α for 3.5 hrs, incubated in a complete media for a duration of two doubling times, and assessed for viability by using a CCK-8 colorimetric assay (Dojindo Molecular Technologies, Inc.).
The effect of peptide 7MM of viability of normal lung cells was studied. HLF normal primary lung fibroblasts (ATCC #PC S-201-013) were transfected with 1.25-10 μM peptide 7MM for 3.5 hrs, incubated in a complete media for a duration of two doubling times, and assessed for viability by using a CCK-8 colorimetric assay (Dojindo Molecular Technologies, Inc.).
as §1

[7] = system: PANC-1 pancreatic cancer cells
Procedure: The effect of Peptides 7M and 7MM on PANC-1 pancreatic cancer cells (ATCC #CRL-1469) was studied. Pierce Protein Transfection reagent (Thermo Scientific, 89850) was used to deliver peptide to the cultured cells. PANC-1 pancreatic cancer cells were transfected with 0.625-10 μM Peptide 7M or Peptide 7MM for 3.5 hrs, incubated in a complete media for a duration of two doubling times (48 hours), and assessed for viability by using a CCK-8 colorimetric assay.
The effect of peptide 7α of viability of pancreatic cancer cells was studied. PANC-1 pancreatic cancer cells (ATCC #CRL-1469) were transfected with 1.25-10 μM peptide 7α for 3.5 hrs, incubated in a complete media for a duration of two doubling times, and assessed for viability by using a CCK-8 colorimetric assay (Dojindo Molecular Technologies, Inc.).
as §1

[8] = system: Hs 766T pancreatic cancer cells
Procedure: as §1

[9] = system: hTERT-HPNE immortalized normal pancreatic cells
Procedure: as §1

[10] = system: DU145 prostate cancer cells
Procedure: DU145 prostate cancer cells (ATCC #HTB-81) were transfected with 1.25-10 μM peptide 7α for 3.5 hrs, incubated in a complete media for a duration of two doubling times, and assessed for viability by using a CCK-8 colorimetric assay (Dojindo Molecular Technologies, Inc.).
DU145 prostate cancer cells (ATCC #HTB-81) were transfected with 1.25-10 μM peptide 7MM for 3.5 hrs, incubated in a complete media for a duration of two doubling times, and assessed for viability by using a CCK-8 colorimetric assay (Dojindo Molecular Technologies, Inc.).
as §1

[11] = system: PC3 prostate cancer cells
Procedure: The effect of peptide 7α of viability of prostate cancer cells was studied. PC3 prostate cancer cells (ATCC #CRL-1435) were transfected with 1.25-10 μM peptide 7α for 3.5 hrs, incubated in a complete media for a duration of two doubling times, and assessed for viability by using a CCK-8 colorimetric assay (Dojindo Molecular Technologies, Inc.).
The effect of peptide 7MM of viability of prostate cancer cells was studied. PC3 prostate cancer cells (ATCC #CRL-1435) were transfected with 1.25-10 μM peptide 7MM for 3.5 hrs, incubated in a complete media for a duration of two doubling times, and assessed for viability by using a CCK-8 colorimetric assay (Dojindo Molecular Technologies, Inc.).
as §1

[12] = system: HCT-116 colorectal cancer cells
Procedure: The effect of peptide 7MM of viability of colorectal cancer cells was studied. HCT-116 colorectal cancer cells (ATCC #CCL-247) were transfected with 1.25-10 μM peptide 7MM for 3.5 hrs, incubated in a complete media for a duration of two doubling times, and assessed for viability by using a CCK-8 colorimetric assay (Dojindo Molecular Technologies, Inc.).
as §1

[13] = system: U-2 OS osteosarcoma cancer cells
Procedure: as §1

[14] = system: HT1080 fibrosarcoma cancer cells
Procedure: as §1

[15] = transfected 1.25-10 μM for 3.5 hrs, two doubling times, CCK-8
[16] = transfected 1.25-20 μM for 3.5 hrs, two doubling times, CCK-8

Procedure for A549 lung cancer cells: as §1
Procedure for H596 lung cancer cells: as §1
Procedure for HepG2 liver cancer cells: as §2, §1

inhibition of CMG helicase in vitro (chromatin RPA Western blot) (CMG helicase): inhibit CMG helicase in vitro
pIC50 ([1]; 96 h): 5.34
pIC50 ([3]; 48 h): 5.15
pIC50 (HepG2 liver cancer cells; 96 h): 5.43
pIC50 (A549 lung cancer cells): 4.78
pIC50 (H596 lung cancer cells): 5.12
pIC50 ([7]; 48 h): 5.19
pIC50 [8]: 5.13
pIC50 [10]: 4.99
pIC50 [11]: 5.02
pIC50 [12]: 5.02
pIC50 [13]: 4.84
pIC50 [14]: 5.36
Sequence: DLVISFQLMLCVLDYFIK [7α, DLVISFQLMLCVLDYFIK]
effect on viability of BT-549 breast cancer cells [1, 15]: decreases viability
pIC50 [2]: 3.94
effect on viability of HMEC normal mammary epithelial cells [2, 16]: does not affect viability
effect on viability of M059J glioma cells [3, 15]: decreases viability
pIC50 [4]: 3.95
effect on viability of SVG p12 normal brain cells [4, 16]: does not affect viability
effect on viability of HepG2 liver cancer cells (HepG2 liver cancer cells; transfected 1.25-5 μM for 3.5 hrs, two doubling times, CCK-8): decreases viability
pIC50 [5]: 3.93
effect on viability of THLE-3 normal liver cells [5, 15]: does not affect viability
effect on viability of A549 lung cancer cells (A549 lung cancer cells; [15]): decreases viability
effect on viability of H596 lung cancer cells (H596 lung cancer cells; [15]): decreases viability
pIC50 [6]: 3.65
effect on viability of HLF normal primary lung fibroblasts [6, 15]: does not affect viability
effect on viability of PANC-1 pancreatic cancer cells [7, 15]: decreases viability
effect on viability of Hs 766T pancreatic cancer cells [8, 15]: decreases viability
pIC50 [9]: 3.44
effect on viability of hTERT-HPNE normal pancreatic cells [9, 15]: does not affect viability
effect on viability of DU145 prostate cancer cells [10, 15]: decreases viability
effect on viability of PC3 prostate cancer cells [11, 15]: decreases viability
effect on viability of HCT-116 colorectal cancer cells [12, 15]: decreases viability
effect on viability of U-2 OS osteosarcoma cancer cells [13, 15]: decreases viability
effect on viability of HT1080 fibrosarcoma cancer cells [14, 15]: decreases viability
